The experiment deals with NCI-H295R. As to the kind of experiment: IC50 (antiproliferative, ATP content). Conditions: 48 h. The procedure, abridged: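 Adrenocortical carcinoma cells (1500 per well) were seeded in serum-free ITS-supplemented DMEM in 1536-well plates and cultured overnight. Library compounds were then pin-transferred at 8 final concentrations from 0.6 nM to 46 µM, and plates were kept 48 h at 37 °C, 5% CO2. ATP was read as CellTiter-Glo luminescence after 20 min at room temperature and normalised to vehicle (0%) and positive control (100% inhibition). IC50 came from four-parameter logistic fits; compounds with no concentration response were recorded as above the top dose.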
On to `N[C@H](CC(=O)O)C(=O)O`, for which the IC50 is above 46 µM. `O=C1[C@](NC(C3S\C(S3)=C(C(O)=O)/C(N)=O)=O)(OC)[C@]2([H])N1C(C(O)=O)=C(CSC4=NN=NN4C)CS2` (stereo partly specified) returned an IC50 above 46 µM.

Turning to `Cc1nc(-c2ccc(Cl)cc2)oc1COC(C)(C)C(=O)O`, the IC50 is above 46 µM. Then `NC(=O)c1ccccc1O`, with above 46 µM; and `O=C1[C@]([C@](CC4)([H])[C@@]3([H])[C@@](C1)(C)[C@@](CC3)(O)[C@@](CO)=O)([H])[C@](C=C2)(C)C4=CC2=O`, with above 46 µM; and `Cc1ccc(=O)n(-c2ccccc2)c1`, with above 46 µM. Under `OCCO[C@@H]1[C@@H](O)[C@H](O)[C@@H](CO)O[C@@H]1O` stands above 46 µM; under `C=CCOc1ccc(CC(=O)O)cc1Cl`, above 46 µM.

Molecule `O=C(O[C@@H]2C[C@H](CC3)[N@@+](C)(C)[C@H]3C2)C(CO)C1=CC=CC=C1.[Br-]` (stereo partly specified) showed an IC50 above 46 µM. Then `CCn1cc(C(=O)O)c(=O)c2ccc(C)nc21`, with above 46 µM. Under `O=S(=O)([O-])O.[Na+]` stands above 46 µM. As for `CC(C)(C)CC(C)(C)c1ccc(OCCO)cc1`, the IC50 is above 46 µM.

In the case of `O=C(O)Cn1c(C(=O)Nc2nc(-c3ccccc3Cl)cs2)cc2ccccc21`, the IC50 was above 46 µM. Under `O=C(Cn1ccnc1[N+](=O)[O-])NCc1ccccc1` stands above 46 µM; under `F[C@@]([C@](C[C@@H]5F)([H])[C@@](C4)([H])[C@@]2(C)[C@@]1([C@](COC(C)=O)=O)[C@]4([H])OC(C)(C)O1)([C@@H](O)C2)[C@](C=C3)(C)C5=CC3=O`, above 46 µM; under `CC(C)(CO)[C@@H](O)C(=O)NCCCC(=O)[O-].CC(C)(CO)[C@@H](O)C(=O)NCCCC(=O)[O-].[Ca+2]`, above 46 µM. On to `COC(=O)c1cccnc1`, for which the half-inhibitory concentration (IC50) is above 46 µM. As for `CN1CC(=O)NC1=N`, the IC50 was above 46 µM. Then `O=C(NCCNCC(O)COc1ccc(O)cc1)N1CCOCC1` (stereo unspecified), with above 46 µM; and `CCC1(CC)C(=O)NC(=O)NC1=O`, with above 46 µM; and `O=C(CCN1CCN2CCCC2C1)N1c2ccccc2Sc2ccc(Cl)cc21` (stereo unspecified), with above 46 µM. Then `CC1(C)S[C@@H]2[C@H](NC(=O)[C@@H](NC(=O)N3CCNC3=O)c3ccccc3)C(=O)N2[C@H]1C(=O)[O-].[Na+]`, with above 46 µM. Then `CCN[C@@H]1C[C@H](N)[C@@H](OC2OC(CN)=CCC2N)[C@H](O)[C@H]1O[C@H]1OC[C@](C)(O)[C@H](NC)[C@H]1O.CCN[C@@H]1C[C@H](N)[C@@H](OC2OC(CN)=CCC2N)[C@H](O)[C@H]1O[C@H]1OC[C@](C)(O)[C@H](NC)[C@H]1O.O=S(=O)(O)O.O=S(=O)(O)O.O=S(=O)(O)O.O=S(=O)(O)O.O=S(=O)(O)O` (stereo partly specified), with above 46 µM; and `CN1CCC(=C2c3ccccc3CCc3sccc32)CC1`, with above 46 µM.

On to `CNCCC(Oc1ccccc1OC)c1ccccc1` (stereo unspecified), for which the IC50 was above 46 µM. Regarding `COC(=O)CCC[N+](C)(C)C.[Cl-]`, the IC50 is above 46 µM. Under `Cc1ncc(CSSCc2cnc(C)c(O)c2CO)c(CO)c1O.Cl.Cl` stands above 46 µM; under `Cl.NNc1ccccc1`, above 46 µM; under `O=C(C1CCCCC1)N1CC(=O)N2CCc3ccccc3C2C1` (stereo unspecified), above 46 µM. Then `NC[C@@H]1CC[C@@H](N)[C@@H](O[C@H]2[C@H](O)[C@@H](O[C@H]3O[C@H](CO)[C@@H](O)[C@H](N)[C@H]3O)[C@H](N)C[C@@H]2N)O1`, with above 46 µM. Under `CN(C(=O)c1c(O)c2ccccc2n(C)c1=O)c1ccccc1` stands above 46 µM.

Consider `CC(=O)O[C@@H]3C\C4=C\C[C@@H]2[C@H](CC[C@]1(C)C(=O)CC[C@H]12)[C@@]4(C)CC3`, for which the IC50 was above 46 µM. Then `COS(=O)(=O)[O-].C[N+]1(C)CCCCC1COC(=O)C(O)(c1ccccc1)c1ccccc1` (stereo unspecified), with above 46 µM; and `CCCC[N@@+]1(C)[C@@H]2C[C@@H](OC(=O)[C@H](CO)c3ccccc3)C[C@H]1[C@@H]1O[C@@H]12.[Br-]`, with above 46 µM; and `CC(C)(CO)C(O)C(=O)NCCC(=O)NCCSSCCNC(=O)CCNC(=O)C(O)C(C)(C)CO` (stereo unspecified), with above 46 µM. Under `N[C@@H](Cc1ccc(Oc2cc(I)c(O)c(I)c2)c(I)c1)C(=O)O` stands above 46 µM; under `O=[C@](CO)[C@@H]2[C@](CC1)(C)[C@](CC2)([H])[C@@](CC4)([H])[C@@]1([H])[C@](CC3)(C)C4=CC3=O`, above 46 µM; under `CC(=O)NCc1c(I)c(NC(C)=O)c(I)c(C(=O)O)c1I`, above 46 µM. Under `CN(C)C(Cc1ccccc1)c1ccccc1` (stereo unspecified) stands above 46 µM; under `CCCCN1CCCC1C(=O)Nc1c(C)cc(C)cc1C` (stereo unspecified), above 46 µM. The molecule `CCn1ccnc1CC1COc2ccccc2O1` (stereo unspecified) displayed an IC50 above 46 µM.

Molecule `O=C1c2ccccc2C(=O)C1c1ccc(F)cc1` registered a half-maximal inhibitory concentration (IC50) above 46 µM. Then `CN1C(C)(C)CCCC1(C)C.O=C(O)[C@@H](O)[C@H](O)C(=O)O`, with above 46 µM; and `Cc1cc(C(=O)NCCc2ccc(S(=O)(=O)NC(=O)NN3CCCCCC3)cc2)no1`, with above 46 µM.

`CNC(=O)Oc1cccc2ccccc12` gave an IC50 above 46 µM. Then `CCOc1ccc2c3c1O[C@H]1[C@@H](O)C=C[C@H]4[C@@H](C2)N(C)CC[C@@]341`, with above 46 µM; and `Cc1nc2ccccn2c(=O)c1CCN1CCC(C(=O)c2ccc(F)cc2)CC1`, with above 46 µM. Under `NC(=O)NC1NC(=O)NC1=O` (stereo unspecified) stands above 46 µM; under `CO[C@H]1C[C@H](O[C@H]2[C@H](C)[C@@H](O[C@@H]3O[C@H](C)C[C@H](N(C)C)[C@H]3OC(C)=O)[C@@H](C)C[C@]3(CO3)C(=O)[C@H](C)[C@@H](OC(C)=O)[C@@H](C)[C@@H](C)OC(=O)[C@@H]2C)O[C@@H](C)[C@@H]1OC(C)=O`, above 46 µM; under `C=C(C)C1CC=C(C)CC1` (stereo unspecified), above 46 µM.

`Nc1nc(N)nc(NC2CC2)n1` displayed a half-inhibitory concentration (IC50) above 46 µM. Under `Cc1ncc2n1-c1ccc(Cl)cc1C(c1ccccc1F)=NC2.Cl` stands above 46 µM; under `NCCC[C@H](N)CC(=O)N[C@H]1CNC(=O)[C@H]([C@H]2C[C@H](O)N=C(N)N2)NC(=O)/C(=C/NC(N)=O)NC(=O)[C@H](CO)NC(=O)[C@H](CO)NC1=O.O=S(=O)(O)O`, above 46 µM. Then `CCCn1c(=O)[nH]c(=O)c2[nH]cnc21`, with above 46 µM.

In turn, `C[C@H](CCC(=O)[O-])[C@H]1CC[C@H]2[C@@H]3CC[C@@H]4C[C@H](O)CC[C@]4(C)[C@H]3C[C@H](O)[C@]12C.[Na+]` came in with an IC50 above 46 µM. Under `O=C(O)c1cc(O)c(O)c(O)c1` stands above 46 µM.

`COc1ccc(CCNC[C@H](O)c2ccc(O)cc2)cc1OC` showed an IC50 above 46 µM. Then `COC(=O)N/N=C/c1c[n+]([O-])c2ccccc2[n+]1[O-]`, with above 46 µM. Then `COc1ccc2cc(CCC(C)=O)ccc2c1`, with above 46 µM; and `CN1CCCC(CC2c3ccccc3Sc3ccccc32)C1.Cl` (stereo unspecified), with above 46 µM; and `C#C[C@]1(O)CC[C@H]2[C@@H]3CCC4=CC(=O)CC[C@@H]4[C@H]3CC[C@@]21C`, with above 46 µM.

What is called IC50 is the midpoint of a concentration-inhibition curve. Read a low IC50 as greater potency in that assay.

The record behind these values is the supplement of paper PMC3493320.
